The values below come from ChEMBL document CHEMBL1130398 (J Med Chem, 1997).

The target in experiment [1] is T1, Acetylcholinesterase (Rattus norvegicus, UniProt P37136).
T1 sequence (P37136 whole entry): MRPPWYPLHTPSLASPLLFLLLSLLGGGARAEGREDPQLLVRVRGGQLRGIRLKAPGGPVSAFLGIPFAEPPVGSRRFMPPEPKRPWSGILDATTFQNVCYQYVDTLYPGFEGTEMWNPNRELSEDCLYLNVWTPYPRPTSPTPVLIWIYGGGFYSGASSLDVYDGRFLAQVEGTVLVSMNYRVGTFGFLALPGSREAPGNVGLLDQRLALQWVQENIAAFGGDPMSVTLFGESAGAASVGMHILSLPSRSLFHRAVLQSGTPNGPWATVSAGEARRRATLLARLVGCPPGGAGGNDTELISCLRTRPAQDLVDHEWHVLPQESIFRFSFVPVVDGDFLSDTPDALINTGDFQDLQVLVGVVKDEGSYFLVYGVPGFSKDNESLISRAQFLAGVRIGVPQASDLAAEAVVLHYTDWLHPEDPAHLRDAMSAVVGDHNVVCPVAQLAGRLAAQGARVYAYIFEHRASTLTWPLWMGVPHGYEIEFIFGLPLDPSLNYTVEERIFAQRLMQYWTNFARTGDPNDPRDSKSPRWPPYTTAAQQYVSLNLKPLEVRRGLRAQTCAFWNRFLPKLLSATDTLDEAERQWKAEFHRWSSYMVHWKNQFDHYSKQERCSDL
Description: In vitro inhibition of acetylcholinesterase, isolated from rat brain.

The target of experiment [2] is Norepinephrine transporter (Rattus norvegicus, UniProt Q9WTR4).
Chain of Norepinephrine transporter (Q9WTR4 whole entry): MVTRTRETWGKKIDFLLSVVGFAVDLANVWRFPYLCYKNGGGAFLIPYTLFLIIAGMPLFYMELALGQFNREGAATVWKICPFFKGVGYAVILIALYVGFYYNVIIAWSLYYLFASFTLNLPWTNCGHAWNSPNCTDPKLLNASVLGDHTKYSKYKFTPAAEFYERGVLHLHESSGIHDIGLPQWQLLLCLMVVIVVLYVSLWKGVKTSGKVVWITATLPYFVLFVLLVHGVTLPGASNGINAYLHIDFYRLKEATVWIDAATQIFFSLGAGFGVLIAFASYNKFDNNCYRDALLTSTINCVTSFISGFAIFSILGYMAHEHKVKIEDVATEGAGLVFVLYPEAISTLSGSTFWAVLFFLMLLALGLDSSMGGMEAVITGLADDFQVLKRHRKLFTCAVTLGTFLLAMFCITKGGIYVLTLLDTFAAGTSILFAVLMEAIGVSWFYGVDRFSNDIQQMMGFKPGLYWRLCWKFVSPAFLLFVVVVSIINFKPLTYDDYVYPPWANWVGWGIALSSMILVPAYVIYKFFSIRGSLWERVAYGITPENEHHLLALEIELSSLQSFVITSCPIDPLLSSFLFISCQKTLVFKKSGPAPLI
Description: Inhibition of neuronal uptake of Noradrenaline in rat brain homogenate
Experiment [3] deals with T2, Cholinesterase (Homo sapiens, UniProt P06276).
T2 sequence (P06276 whole entry): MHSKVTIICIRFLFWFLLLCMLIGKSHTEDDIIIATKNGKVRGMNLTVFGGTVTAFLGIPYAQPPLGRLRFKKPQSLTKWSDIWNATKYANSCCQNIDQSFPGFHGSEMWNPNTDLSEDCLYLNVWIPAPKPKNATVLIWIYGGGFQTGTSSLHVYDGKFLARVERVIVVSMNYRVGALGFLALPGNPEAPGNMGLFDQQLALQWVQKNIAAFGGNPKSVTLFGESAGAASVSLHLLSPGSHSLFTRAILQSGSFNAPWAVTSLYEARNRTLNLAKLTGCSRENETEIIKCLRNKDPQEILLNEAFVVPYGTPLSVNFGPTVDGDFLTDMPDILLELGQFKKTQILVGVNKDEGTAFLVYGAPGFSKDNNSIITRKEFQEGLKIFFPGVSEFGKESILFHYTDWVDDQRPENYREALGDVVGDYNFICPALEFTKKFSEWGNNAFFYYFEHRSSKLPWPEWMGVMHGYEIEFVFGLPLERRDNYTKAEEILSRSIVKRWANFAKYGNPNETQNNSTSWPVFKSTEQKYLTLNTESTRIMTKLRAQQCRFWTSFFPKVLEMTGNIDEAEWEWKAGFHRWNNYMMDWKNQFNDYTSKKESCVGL
Description: In vitro inhibition of Butyrylcholinesterase from human plasma.
In experiment [4] the target is Sodium-dependent serotonin transporter (Rattus norvegicus, UniProt P31652).
Chain of Sodium-dependent serotonin transporter (P31652 whole entry): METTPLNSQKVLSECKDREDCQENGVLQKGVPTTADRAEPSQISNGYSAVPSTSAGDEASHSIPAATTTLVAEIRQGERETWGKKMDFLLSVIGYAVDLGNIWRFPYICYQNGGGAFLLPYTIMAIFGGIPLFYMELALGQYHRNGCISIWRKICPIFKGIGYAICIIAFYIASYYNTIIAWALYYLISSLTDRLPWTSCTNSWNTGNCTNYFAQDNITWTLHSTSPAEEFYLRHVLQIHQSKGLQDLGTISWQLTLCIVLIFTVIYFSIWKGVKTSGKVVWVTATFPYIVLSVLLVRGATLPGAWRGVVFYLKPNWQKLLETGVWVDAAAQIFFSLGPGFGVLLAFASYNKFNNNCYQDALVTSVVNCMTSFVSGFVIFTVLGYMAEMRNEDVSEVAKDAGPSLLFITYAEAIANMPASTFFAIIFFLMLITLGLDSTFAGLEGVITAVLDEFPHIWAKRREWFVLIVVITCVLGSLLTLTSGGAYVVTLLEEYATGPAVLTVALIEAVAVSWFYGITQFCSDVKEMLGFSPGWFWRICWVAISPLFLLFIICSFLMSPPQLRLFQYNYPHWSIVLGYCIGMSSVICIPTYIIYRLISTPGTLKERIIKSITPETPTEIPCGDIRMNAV
The target of experiment [5] is T2, Cholinesterase. In words: Activity against Butyrylcholinesterase (BChE) from human plasma at 100 uM; no block. It is filed as cell-free.
Experiment [6] concerns the target T2, Cholinesterase. In words: Activity against Butyrylcholinesterase (BChE) from human plasma at 100 uM; No block. It is filed as cell-free.
Experiment [7] addresses T1, Acetylcholinesterase. In words: Inhibitory activity against acetylcholinesterase, isolated from rat brain at 100 uM; No block.

`CCCCC1(O)c2nc3ccccc3c(N)c2CC1C` (centres undefined): the IC50 is 91 µM on Acetylcholinesterase [1], 12 µM in experiment [2], 81 µM against Cholinesterase [3] and 7.1 µM in experiment [4].

For the compound `Nc1c2c(nc3ccccc13)CCCc1ccccc1-2`, the IC50 worked out at 26.4 µM against Cholinesterase [3] and 0.02 µM in experiment [4].

As to `Nc1c2c(nc3ccccc13)CCC2`, the IC50 in experiment [2] was 0.6 µM; on Cholinesterase [3], 0.052 µM; in experiment [4], 21 µM.

Consider `COc1ccc2c(c1)CCc1c-2nc2ccccc2c1N`, for which the IC50 result against Cholinesterase [5] was “no block”; against Acetylcholinesterase [1], 47.5 µM; in experiment [2], 1.4 µM; in experiment [4] it was 5.8 µM.

In the case of `CC12CCC(c3c1nc1ccccc1c3N)C2(C)C` (centres undefined), the figures for the IC50 (against Acetylcholinesterase [1]; against Cholinesterase [3]; in experiment [4]) were 110 µM, 88 µM and 13 µM, respectively.

As to `Nc1c2c(nc3ccccc13)-c1cccc(Cl)c1CC2`, the IC50 is 144 µM against Acetylcholinesterase [1], 41 µM in experiment [2], 10.3 µM on Cholinesterase [3] and 14.3 µM in experiment [4].

As for `COc1ccc2c(c1)CCCc1c-2nc2ccccc2c1N`, the 50% inhibitory concentration (IC50) was 3.6 µM in experiment [2], above 100 µM on Cholinesterase [3] and 0.7 µM in experiment [4].

Turning to `Nc1c2c(nc3ccccc13)-c1ccccc1NCCC2`, the IC50 on Acetylcholinesterase [1] was 391 µM; in experiment [2], 2.5 µM; against Cholinesterase [3], 6.7 µM; in experiment [4] it was 6.9 µM.

Turning to `Nc1c2c(nc3ccccc13)-c1ccccc1NCC2`, the IC50 against Acetylcholinesterase [1] is 69.4 µM; in experiment [2], 3 µM; against Cholinesterase [3] it was 18.9 µM; in experiment [4], 4.2 µM.

For the compound `Nc1c2c(nc3ccccc13)CCCCCC2`, the values for the IC50 (in experiment [2]; against Cholinesterase [3]; in experiment [4]) were 0.8 µM, 2.3 µM and 1.1 µM, respectively.

`Nc1c2c(nc3ccccc13)-c1ccccc1CC2`: the IC50 was found to be 12.1 µM in experiment [2], 3.3 µM on Cholinesterase [3] and 4.6 µM in experiment [4].

Take `Nc1c2c(nc3ccccc13)CCCCC2`: the IC50 on Acetylcholinesterase [1] came out at 0.039 µM; in experiment [2], 6.9 µM; on Cholinesterase [3], 0.014 µM; in experiment [4] it was 3.6 µM.

On to `Nc1c2c(nc3ccccc13)-c1ccccc1CCC2`, for which the IC50 stood at 166 µM against Acetylcholinesterase [1], 1.8 µM in experiment [2], 36 µM on Cholinesterase [3] and 4.7 µM in experiment [4].

Consider `CC1Cc2c(nc3ccccc3c2N)C1(C)O` (centres undefined), for which the IC50 on Acetylcholinesterase [1] is 134 µM; against Cholinesterase [3], 12.2 µM; in experiment [4] it was 4.4 µM.

In the case of `CCCCC1=C(C)Cc2c1nc1ccccc1c2N`, the figures for the IC50 (on Acetylcholinesterase [1]; on Cholinesterase [3]; in experiment [4]) were 25 µM, 42 µM and 13 µM, respectively.

For `Nc1c2c(nc3ccccc13)-c1ccccc1C2`, the IC50 in experiment [2] was found to be 2.3 µM; against Cholinesterase [3] it was 3.1 µM; in experiment [4], 2.2 µM.

In the case of `Nc1c2c(nc3ccccc13)C1CCC2C1` (centres undefined), the half-inhibitory concentration (IC50) in experiment [2] is 6.1 µM; against Cholinesterase [3], 0.041 µM; in experiment [4], 0.2 µM.

On to `CC1=C(C)c2nc3ccccc3c(N)c2C1`, for which the IC50 against Acetylcholinesterase [1] amounted to 3.5 µM; against Cholinesterase [3], 5.9 µM; in experiment [4], 5.1 µM.

On to `Nc1c2ccccc2nc2c1cnc1cc(Cl)ccc12`, for which the 50% inhibitory concentration (IC50) result against Cholinesterase [6] is “No block”; in experiment [2] it was 0.2 µM; in experiment [4], above 95 µM; on Acetylcholinesterase [7], “No block”.

The IC50 is the concentration that inhibits the measured activity by half.
